Laboratory results published in US7601716B2, “Pyridopyrazines and derivatives thereof as ALK and c-Met inhibitors” (Cephalon, Inc., priority 2006, dated 2009).

Target: baculovirus-expressed ALK (Homo sapiens, UniProt Q9UM73)
Test: ALK Kinase Assay (ELISA/TRF, PLC-γ substrate); note: 1 µM ATP (Km level)
Format: biochemical
Conditions: read-out: ALK Kinase Inhibition (IC50)
Outline: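 Plates coated with GST-PLC-γ substrate (10 µg/mL in TBS), then reaction started with 30 ng/ml baculovirus-expressed ALK, 15 min at 37 °C. Phosphotyrosine detected by Eu-labeled PT66 antibody and time-resolved fluorescence. IC50 from variable-slope sigmoidal fit of percent inhibition versus log concentration.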

Chain of baculovirus-expressed ALK (Q9UM73 19-1620): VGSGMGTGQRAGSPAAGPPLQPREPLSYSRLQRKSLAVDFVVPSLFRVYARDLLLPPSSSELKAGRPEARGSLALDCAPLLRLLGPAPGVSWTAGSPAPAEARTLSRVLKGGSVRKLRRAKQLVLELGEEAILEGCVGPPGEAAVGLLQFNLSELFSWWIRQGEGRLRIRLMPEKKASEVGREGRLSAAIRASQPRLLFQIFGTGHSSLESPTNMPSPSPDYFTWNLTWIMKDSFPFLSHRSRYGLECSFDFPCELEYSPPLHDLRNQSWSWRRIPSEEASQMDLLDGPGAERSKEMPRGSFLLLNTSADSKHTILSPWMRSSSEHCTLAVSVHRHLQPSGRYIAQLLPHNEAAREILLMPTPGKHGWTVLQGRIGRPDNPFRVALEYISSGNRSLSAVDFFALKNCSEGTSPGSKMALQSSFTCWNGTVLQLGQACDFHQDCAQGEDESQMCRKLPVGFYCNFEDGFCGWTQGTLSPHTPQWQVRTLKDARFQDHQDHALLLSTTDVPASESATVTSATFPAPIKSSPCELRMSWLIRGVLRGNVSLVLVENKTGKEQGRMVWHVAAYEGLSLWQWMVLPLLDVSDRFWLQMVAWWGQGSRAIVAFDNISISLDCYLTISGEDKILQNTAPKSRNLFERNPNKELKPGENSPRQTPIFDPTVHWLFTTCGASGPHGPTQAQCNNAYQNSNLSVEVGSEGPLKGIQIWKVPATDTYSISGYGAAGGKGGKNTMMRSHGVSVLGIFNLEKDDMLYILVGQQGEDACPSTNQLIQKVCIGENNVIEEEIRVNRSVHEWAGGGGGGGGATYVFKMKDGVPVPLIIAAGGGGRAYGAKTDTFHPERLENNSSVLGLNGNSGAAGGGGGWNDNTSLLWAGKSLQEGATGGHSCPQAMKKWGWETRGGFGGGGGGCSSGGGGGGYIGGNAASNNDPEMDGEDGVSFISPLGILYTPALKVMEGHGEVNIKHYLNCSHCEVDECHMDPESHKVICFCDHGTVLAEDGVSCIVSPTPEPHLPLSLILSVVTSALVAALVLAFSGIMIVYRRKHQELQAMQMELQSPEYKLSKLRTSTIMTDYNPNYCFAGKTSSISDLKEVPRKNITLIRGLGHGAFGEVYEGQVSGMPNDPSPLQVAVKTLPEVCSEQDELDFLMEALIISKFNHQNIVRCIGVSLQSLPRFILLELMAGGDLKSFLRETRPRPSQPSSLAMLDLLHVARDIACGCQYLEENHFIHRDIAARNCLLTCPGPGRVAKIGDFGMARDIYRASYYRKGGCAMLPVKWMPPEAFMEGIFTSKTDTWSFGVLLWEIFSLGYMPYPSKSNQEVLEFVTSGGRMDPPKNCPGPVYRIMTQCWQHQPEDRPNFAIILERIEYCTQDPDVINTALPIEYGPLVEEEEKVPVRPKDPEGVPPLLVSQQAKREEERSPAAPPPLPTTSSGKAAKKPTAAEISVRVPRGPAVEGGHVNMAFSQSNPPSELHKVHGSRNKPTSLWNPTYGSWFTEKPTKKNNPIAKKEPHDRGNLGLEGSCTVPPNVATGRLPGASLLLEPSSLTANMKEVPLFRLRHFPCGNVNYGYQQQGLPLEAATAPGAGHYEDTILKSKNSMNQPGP

Structure (SMILES) | IC50
O=C(c1ccc(-c2cnc3c(c2)N(Cc2cc(Cl)ccc2C(F)(F)F)CCN3)cc1)N1CCC(c2c[nH]c3ccccc23)CC1 [Example 376, (4-{1-[5-Chloro-2-(trifluoromethyl)benzyl]-1,2,3,4-tetrahydropyrido[2,3-b]pyrazin-7-yl}phenyl)-[4-(1H-indol-3-yl)piperidin-1-yl]methanone] | 100 to 1000 nM
O=C(c1ccc(-c2cnc3c(c2)N(Cc2cc(Cl)ccc2C(F)(F)F)CCN3)cc1)N1CCN(C(c2ccccc2)c2ccccc2)CC1 [Example 377, (4-Benzhydrylpiperazin-1-yl)-(4-{1-[5-chloro-2-(trifluoromethyl)benzyl]-1,2,3,4-tetrahydropyrido[2,3-b]pyrazin-7-yl}phenyl)methanone] | 1000 to 10000 nM
O=C(c1ccc(-c2cnc3c(c2)N(Cc2cc(Cl)ccc2C(F)(F)F)CCN3)cc1)N1CCC(Cc2ccccc2)CC1 [Example 378, (4-Benzylpiperidin-1-yl)-(4-{1-[5-chloro-2-(trifluoromethyl)benzyl]-1,2,3,4-tetrahydropyrido[2,3-b]pyrazin-7-yl}phenyl)methanone] | 1000 to 10000 nM
O=C(c1ccc(-c2cnc3c(c2)N(Cc2cc(Cl)ccc2C(F)(F)F)CCN3)cc1)N1CCN(c2ccc(Cl)c(Cl)c2)CC1 [Example 379, (4-{1-[5-Chloro-2-(trifluoromethyl)benzyl]-1,2,3,4-tetrahydropyrido[2,3-b]pyrazin-7-yl}phenyl)-[4-(3,4-dichlorophenyl)piperazin-1-yl]methanone] | 100 to 1000 nM
O=C(c1ccc(-c2cnc3c(c2)N(Cc2cc(Cl)ccc2C(F)(F)F)CCN3)cc1)N1CCC2(CC1)C(=O)NCN2c1ccccc1 [Example 380, 8-(4-{1-[5-Chloro-2-(trifluoromethyl)benzyl]-1,2,3,4-tetrahydropyrido[2,3-b]pyrazin-7-yl}benzoyl)-1-phenyl-1,3,8-triaza-spiro[4.5]decan-4-one] | 100 to 1000 nM
O=C(c1ccc(-c2cnc3c(c2)N(Cc2cc(Cl)ccc2C(F)(F)F)CCN3)cc1)N1CCN(c2ccccc2C(F)(F)F)CC1 [Example 381, (4-{1-[5-Chloro-2-(trifluoromethyl)benzyl]-1,2,3,4-tetrahydropyrido[2,3-b]pyrazin-7-yl}phenyl)-{4-[2-(trifluoromethyl)phenyl]piperazin-1-yl}methanone] | 100 to 1000 nM
O=C(c1ccc(-c2cnc3c(c2)N(Cc2cc(Cl)ccc2C(F)(F)F)CCN3)cc1)N1CCN(c2ncnc3ccsc23)CC1 [Example 382, (4-{1-[5-Chloro-2-(trifluoromethyl)benzyl]-1,2,3,4-tetrahydropyrido[2,3-b]pyrazin-7-yl}phenyl)-(4-thieno[3,2-d]pyrimidin-4-yl-piperazin-1-yl)methanone] | 100 to 1000 nM
O=C(c1ccc(-c2cnc3c(c2)N(Cc2cc(Cl)ccc2C(F)(F)F)CCN3)cc1)N1CCN(Cc2ccc(Cl)cc2)CC1 [Example 383, [4-(4-Chlorobenzyl)piperazin-1-yl]-(4-{1-[5-chloro-2-(trifluoromethyl)benzyl]-1,2,3,4-tetrahydropyrido[2,3-b]pyrazin-7-yl}phenyl)methanone] | 100 to 1000 nM
COc1ccc(CN2CCN(C(=O)c3ccc(-c4cnc5c(c4)N(Cc4cc(Cl)ccc4C(F)(F)F)CCN5)cc3)CC2)cc1 [Example 384, (4-{1-[5-Chloro-2-(trifluoromethyl)benzyl]-1,2,3,4-tetrahydropyrido[2,3-b]pyrazin-7-yl}phenyl)-[4-(4-methoxybenzyl)piperazin-1-yl]methanone] | 100 to 1000 nM
O=C(c1ccccc1)N1CCN(C(=O)c2ccc(-c3cnc4c(c3)N(Cc3cc(Cl)ccc3C(F)(F)F)CCN4)cc2)CC1 [Example 385, (4-Benzoylpiperazin-1-yl)-(4-{1-[5-chloro-2-(trifluoromethyl)benzyl]-1,2,3,4-tetrahydropyrido[2,3-b]pyrazin-7-yl}phenyl)methanone] | < 100 nM
